Data as given in US12409184B2, “Iloprost compositions and formulations thereof” (BTG INTERNATIONAL INC., priority 2020, dated 2025).
Several values for one entry are separate records, joined by “and”; a condition that tells them apart may be missing. Equal values may be shown once.

Experiments:
[1] = Example 1 safety and tolerability (adverse events, vital signs, ECG, laboratory); format: in vivo, human
Experimental: On Day 1, study drug was initiated at a starting dose of 0.5 ng/kg/min, and dose increases occurred every 30 minutes (+5 minutes) in increments of 0.5 ng/kg/min up to 2.0 ng/kg/min or the individual tolerated dose. If dose-limiting adverse events (e.g., headache, flushing, jaw pain, myalgia, nausea, or vomiting) occurred that could not be tolerated by the subject, or if the subject experienced symptomatic hypotension, then the dose was reduced in a step-wise manner by 0.5 ng/kg/min every 30 minutes (+5 minutes) until a tolerated dose was determined or the infusion was stopped until the symptoms resolved at which point the study drug was reinitiated at a previously tolerated dose. If symptomatic hypotension or a dose-limiting adverse event occurred during administration of iloprost at the starting dose (i.e., 0.5 ng/kg/min), the infusion was reduced to 0.25 ng/kg/min. If the dose of 0.25 ng/kg/min was not tolerated due to symptomatic hypotension or if a dose-limiting adverse event occurred, the study drug was discontinued, and re-initiation of the infusion could have been attempted after the event had resolved or had been treated. Blood pressure and heart rate were monitored 15 minutes (+5 minutes) prior to and after all dose changes. The maximum tolerated dose was maintained for the remaining 6-hour daily period. At the end of the 6-hour infusion period, the dose was stopped. Subjects were to be monitored for up to 1 hour after completion of study drug infusion (i.e., vital signs were obtained 15 minutes [±5 minutes] and 1 hour [±15 minutes] after completion of the infusion).
Vital signs were measured prior to study drug administration and at 15 minutes (±5 minutes) prior to and after all dose changes during the infusion. Additionally, vital signs were monitored at 15 minutes (±5 minutes) and 1 hour (±15 minutes) after completion of the 6-hour infusion.
Safety parameters included adverse events, physical examination findings, vital sign measurements (heart rate and blood pressure), 12-lead electrocardiogram (ECG) findings, and standard clinical laboratory measurements (chemistry and hematology).

[2] = Example 3 solution stability of fully diluted ready-to-use iloprost in IV bags (HPLC); format: physicochemical
Experimental: Iloprost 100 μg/mL injection product is administered to patients by IV bag infusion over a period of six hours. The fully diluted ready to use iloprost is prepared in pharmacy cleanroom using sterile preparation standards (USP Chapter <797>) by pharmacy trained and licensed staff. The fully diluted ready to use drug product may be prepared several hours ahead of treatment with storage at ambient conditions or several days ahead of treatment with storage at refrigerated (2-8° C.) conditions. The IV bags are prepared using empty sterile IV bags which are filled with 99 mL of 0.9% NaCl and 1.0 mL of iloprost 100 µg/mL injection product. The bags are then manually mixed gently to provide a uniform solution. […] IV Bag Sample Preparation: Two 50 mL syringes with 18-gauge needles were assembled. 1.0 mL syringe with 18-gauge needle was assembled. Using a 50 mL syringe, 50 mL of 0.9% NaCl was transferred into an empty IV bag (sterile, ICU Medical) using the injection port. Using a second 50 mL syringe, 49 mL of 0.9% NaCl was transferred into the same IV bag using the injection port resulting in 99 mL of solution. Using the 1 ml syringe, 1.0 mL of iloprost 100 μg/mL injection product was transferred into the IV bag using the injection port. The needle was removed and the port was securely closed. The IV bag was gently inverted several times to mix. During inversion, it was occasionally paused to squeeze the injection port area to ensure liquid rinsed into area several times. Sampling Procedure: For sampling, a 3 mL syringe was assembled with an 18-gauge needle. Using a 3 ml syringe, 2 mL of IV bag solution was withdrew through the injection port and 1 mL was transferred to a HPLC vial for neat injection and the other 1 ml was transferred to a back-up HPLC vial. HPLC vials were stored at refrigerated conditions 2-8° C. Sample Storage and Sampling: For each testing conditions (i-iv discussed above), 12 IV bag samples were prepared (6 IV bags for condition ia)-see below for sampling time). For condition i), all 12 IV bags were then placed into 25° C./60% RH stability chamber ensuring each bag is resting on its largest surface area side. After the first time point, the IV bags were removed from the chamber and each IV bag was mixed by inversion several times. Sampling from each IV bag was taken for HPLC analysis. After sampling, the IV bags were placed back into 25° C./60% RH stability chamber ensuring each bag is resting on its largest surface area side, until next sampling time. At each sampling time, the IV bags were removed from the chamber and each IV bag was mixed by inversion several times before samples were removed. For conditions ii) and iii), all 12 IV bags for each testing condition was placed into a 2-8° C. stability chamber ensuring each bag is resting on its largest surface area side. After 5 days have passed for condition ii) or after 8 days have passed for condition iii), the IV bags were removed from the chamber and allowed to equilibrate to room temperature. Each IV bag was mixed by inversion several times. Sampling from each IV bag was taken for HPLC analysis. Then the IV bags were placed in the 25° C./60% RH stability chamber and sampled at certain time points as discussed herein. […]

[3] = Table 8A, IV bag 25° C./60% RH, 2 h
[4] = Table 8A, IV bag 25° C./60% RH, 4 h
[5] = Table 8A, IV bag 25° C./60% RH, 6 h
[6] = Table 8A, IV bag 25° C./60% RH, 8 h
[7] = Table 8A, IV bag 25° C./60% RH, 24 h
[8] = Table 8B, Batch 1, 25° C./60% RH, 8 hr
[9] = Table 8B, Batch 1, 25° C./60% RH, 12 hr
[10] = Table 8B, Batch 1, 25° C./60% RH, 48 hr
[11] = Table 8B, Batch 1, 25° C./60% RH, 96 hr
[12] = Table 8C, Batch 2, 25° C./60% RH, 8 hr
[13] = Table 8C, Batch 2, 25° C./60% RH, 12 hr
[14] = Table 8C, Batch 2, 25° C./60% RH, 48 hr
[15] = Table 8C, Batch 2, 25° C./60% RH, 96 hr
[16] = Table 8D, Batch 1, 5° C. for 5 days
[17] = Table 8D, Batch 1, 5° C. for 5 days, 25° C./60% RH for 8 hr
[18] = Table 8D, Batch 1, 5° C. for 5 days, 25° C./60% RH for 12 hr
[19] = Table 8E, Batch 2, 5° C. for 5 days
[20] = Table 8E, Batch 2, 5° C. for 5 days, 25° C./60% RH for 8 hr
[21] = Table 8E, Batch 2, 5° C. for 5 days, 25° C./60% for 12 hr

For CC#CCC(C)[C@H](O)/C=C/[C@@H]1[C@H]2C/C(=C/CCCC(=O)O)C[C@H]2C[C@H]1O (stereo partly drawn) [Iloprost, (5E)-5-[(3aS,4R,5R,6aS)-5-hydroxy-4-[(E,3S)-3-hydroxy-4-methyloct-1-en-6-ynyl]-3,3a,4,5,6,6a-hexahydro-1H-pentalen-2-ylidene]pentanoic acid], the TEAE abdominal pain ([1]; human, in vivo, 5 days) was 4 [23.5%] subjects (%), the TEAE flushing ([1]; human, in vivo, 5 days) was 5 [29.4%] subjects (%) and the TEAE headache ([1]; human, in vivo, 5 days) was 16 [94.1%] subjects (%). For the same compound, the TEAE nausea ([1]; human, in vivo, 5 days) was 11 [64.7%] subjects (%), the “subjects who experienced TEAEs considered severe by the Investigator” value ([1]; human, in vivo, 5 days) was “Two (11.8%) subjects (%)” and the “subjects who experienced a TEAE” value ([1]; human, in vivo, 5 days) was 17 (100.0%) subjects (%). For the same compound, the “TEAEs related to vital signs, physical examination findings, or ECGs” value ([1]; in vivo) was “no TEAEs”, the bradycardia or tachycardia ([1]; in vivo) was “no bradycardia or tachycardia” and the “changes in chemistry or hematology laboratory values” ([1]; in vivo) was “no clinically significant changes”. The “hypertensive or hypotensive events” value ([1]; in vivo) was “no hypertensive or hypotensive events”, the “deaths, SAEs, AESIs, TEAEs leading to study drug discontinuation” value ([1]; whole study) was “no deaths, SAEs, AESIs, or TEAEs leading to study drug discontinuation” and the “% Initial” value [2, 3] was 100.8% and 99.4% and 100.2% and 99.7% and 100.5% and 100.4%. For the same compound, the “Iloprost (%)” value [2, 3] was 95.0% and 94.2% and 94.8% and 94.7% and 95.3%, the “% Initial” value [2, 4] was 101.0% and 99.5% and 99.6% and 100.3% and 101.3% and 101.9% and the “Iloprost (%)” value [2, 4] was 95.2% and 94.3% and 94.7% and 95.5% and 96.7%. The “% Initial” value [2, 5] was 101.6% and 100.2% and 100.5% and 99.3% and 101.7% and 100.6%, the “Iloprost (%)” value [2, 5] was 95.7% and 95.0% and 95.1% and 93.7% and 95.9% and 95.4% and the “% Initial” value [2, 6] was 100.0% and 101.9% and 101.1% and 99.9%. The “Iloprost (%)” value [2, 6] was 94.3% and 94.8% and 94.6% and 96.2% and 95.3%, the “% Initial” value [2, 7] was 102.2% and 101.4% and 102.0% and 100.1% and 98.9% and 100.5% and the “Iloprost (%)” value [2, 7] was 97.0% and 95.5% and 96.7% and 94.7% and 93.4% and 94.8%. The “Iloprost (%)” value ([2]; Table 8A, IV bag, 1.0 mL 100 μg/mL product + 99 mL 0.9% NaCl, Initial, Samples 1-6) was 94.2% and 94.8% and 94.6% and 94.4% and 94.3% and 94.9%, the “% Initial” value [2, 8] was 100% and 104% and 101% and 103% and the “Iloprost” value [2, 8] was 973.6 ng/mL and 1010 ng/mL and 979.5 ng/mL and 1003 ng/mL and 977.2 ng/mL and 1007 ng/mL. The “% Initial” value [2, 9] was 103% and 104% and 105% and 99%, the “Iloprost” value [2, 9] was 1004 ng/mL and 1009 ng/mL and 978.2 ng/mL and 1042 ng/mL and 975.1 ng/mL and 1005 ng/mL and the “% Initial” value [2, 10] was 103% and 101% and 100%. The “Iloprost” value [2, 10] was 1004 ng/mL and 995.2 ng/mL and 968 ng/mL and 1001 ng/mL and 984.6 ng/mL and 977.3 ng/mL, the “% Initial” value [2, 11] was 104% and 105% and 103% and 102% and 101% and 100% and the “Iloprost” value [2, 11] was 1013 ng/mL and 1017 ng/mL and 970.9 ng/mL and 1014 ng/mL and 994.1 ng/mL and 971.5 ng/mL. The “Iloprost” value ([2]; Table 8B, Batch 1, IV bag, Initial (T = 0), Preparations 1-6) was 975.8 ng/mL and 977.5 ng/mL and 968.7 ng/mL and 942.8 ng/mL and 994.1 ng/mL and 981.9 ng/mL, the “% Initial” value [2, 12] was 102% and 101% and 100% and 96% and the “Iloprost” value [2, 12] was 995.8 ng/mL and 1002 ng/mL and 994.6 ng/mL and 1004 ng/mL and 998.8 ng/mL and 983.3 ng/mL. The “% Initial” value [2, 13] was 101% and 99% and 100% and 98%, the “Iloprost” value [2, 13] was 993.3 ng/mL and 984.1 ng/mL (2×) and 989.6 ng/mL and 994.8 ng/mL and 1005 ng/mL and the “% Initial” value [2, 14] was 101% and 99% and 104% and 100%. For the same compound, the “Iloprost” value [2, 14] was 993.7 ng/mL and 984.2 ng/mL and 994.4 ng/mL and 1032 ng/mL and 1005 ng/mL and 1015 ng/mL, the “% Initial” value [2, 15] was 102% and 99% and 101% and 100% and the “Iloprost” value [2, 15] was 1002 ng/mL and 979.5 ng/mL and 989 ng/mL and 1005 ng/mL and 996.3 ng/mL and 1027 ng/mL. The “Iloprost” value ([2]; Table 8C, Batch 2, IV bag, Initial (T = 0), Preparations 1-6) was 1021 ng/mL and 980.9 ng/mL and 990.7 ng/mL and 980.7 ng/mL and 994.4 ng/mL and 1001 ng/mL, the “% Initial” value [2, 16] was 104% and 98% and 101% and 100% and 99% and the “Iloprost” value [2, 16] was 1050 ng/mL and 931.9 ng/mL and 1024 ng/mL (2×) and 1020 ng/mL and 1001 ng/mL. For the same compound, the “% Initial” value [2, 17] was 99% and 100% and 98% and 102% and 101%, the “Iloprost” value [2, 17] was 1002 ng/mL and 957.3 ng/mL and 993.8 ng/mL and 1040 ng/mL and 1025 ng/mL and 1011 ng/mL and the “% Initial” value [2, 18] was 97% and 99% and 100% and 101%. The “Iloprost” value [2, 18] was 976.5 ng/mL and 943.2 ng/mL and 1015 ng/mL and 1031 ng/mL and 1010 ng/mL and 982.7 ng/mL, the “Iloprost” value ([2]; Table 8D, Batch 1, IV bag, Initial (T = 0)) was 996.6 ng/mL and 1007 ng/mL and 953.6 ng/mL and 1015 ng/mL and 1020 ng/mL and 1036 ng/mL and the “% Initial” value [2, 19] was 102% and 100% and 101%. The “Iloprost” value [2, 19] was 1026 ng/mL and 1009 ng/mL and 1025 ng/mL and 1030 ng/mL and 1011 ng/mL and 987.4 ng/mL, the “% Initial” value [2, 20] was 101% and 99% and 100% and 98% and the “Iloprost” value [2, 20] was 1023 ng/mL and 973.1 ng/mL and 1013 ng/mL and 1012 ng/mL and 996.7 ng/mL and 970.8 ng/mL. The “% Initial” value [2, 21] was 101% and 98% and 102% and 100%, the “Iloprost” value [2, 21] was 1022 ng/mL and 963.3 ng/mL and 1001 ng/mL and the “Iloprost” value ([2]; Table 8E, Batch 2, IV bag, Initial (T = 0)) was 988.4 ng/mL. For the same compound, the “% Initial” value ([2]; Table 8F (5° C. for 8 days to 25° C./60% RH), Batch 1, time point 5° C. for 5 days [sic]) was 103% and 99% and 102% and 100%, the “% Initial” value ([2]; Table 8F, Batch 1, 5° C. for 8 days, 25° C./60% RH for 8 hr) was 99% and 98% and 107% and 100% and the “% Initial” value ([2]; Table 8F, Batch 1, 5° C. for 8 days, 25° C./60% RH for 12 hr) was 101% and 100% and 99%. The “% Initial” value ([2]; Table 8G (5° C. for 8 days to 25° C./60% RH), Batch 2, time point 5° C. for 5 days [sic]) was 99% and 97% and 102%.
